The subject of experiment [1] is CT26 syngeneic mouse colon fibroblast carcinoma-derived subcutaneous tumor. Nature of the experiment: CT26 Study 2: mouse CT26 syngeneic tumor model, individual tumor volume. The class given is in vivo. The note with it: Compound I-263a 7.5 mg/kg IV and anti-mPD-1 10 mg/kg IP, Day 0, 3, 7, 10, 14; 9 tumors/group. The method, then: CT26 Study 2: CT26 is a mouse colon fibroblast carcinoma cell line. CT26 mouse syngeneic tumor model was generated by subcutaneous inoculation with 0.2×10^6 CT-26 cells (cell suspension) in 10 weeks old female BALB/c mice (Vital River Laboratory Animal Technology Co., Ltd., Beijing, China) in the flank. When the mean tumor volume reached approximately 40 mm^3, the animals were randomized into one vehicle control and three treatment groups (n=9/group). Mice were then dosed with 20% HPbCD or Compound I-263a or anti-mouse PD-1 antibody over a 14-day period. Tumor growth and body weight were measured twice per week during the treatment and post-treatment periods, and mice were humanely euthanized once they had reached their humane endpoint.
Study 2: A 0.75 mg/mL stock solution of Compound I-263a was formulated weekly in 20% HPβCD and administered intravenously (IV) based on exact animal body weight on each day of treatment, using a dosing volume of 10 mL/kg body weight. Final doses received were 7.5 mg/kg. Dosing volume for Compound I-263a was 0.2 mL. […]
(§1) Tumors were measured twice weekly using vernier calipers. Tumor volumes were calculated using standard equation: V=W^2×L/2, where V=volume, W=width, and L=length for the tumor. […] Tumor size and body weight were measured twice a week for the duration of the study. […]

Experiment [2] deals with B16-F10 syngeneic mouse melanoma-derived subcutaneous tumor. The experiment is described as follows: B16-F10 Study 7: mouse B16-F10 syngeneic tumor model, individual tumor volume. The class given is in vivo. The conditions noted are these: delay from day 7 to day 10-12; of the 8 implanted tumors; Compound I-263a 7.5 mg/kg IV BIWx3 till Day 17. The method, then: B16-F10 Study 7: B16-F10 is a mouse melanoma cell line. B16-F10 mouse syngeneic tumor model was generated by subcutaneous inoculation with 0.08×10^6 B16-F10 cells (cell suspension) in 11 weeks old female C57BL/6 mice (Taconic Biosciences, Rensselaer, NY) in the flank. When the mean tumor volume reached approximately 50 mm^3, the animals were randomized into one vehicle control and five treatment groups (n=8/group). Mice were then dosed with 20% HPbCD or Compound I-263a or anti-mouse PD-1 antibody over a 17-day period. Tumor growth and body weight were measured twice per week during the treatment and post-treatment periods, and mice were humanely euthanized once they had reached their humane endpoint.
Study 7: A 0.75 mg/mL stock solution of Compound I-263a was formulated weekly in 20% HPβCD and administered intravenously (IV) based on exact animal body weight on each day of treatment, using a dosing volume of 10 mL/kg body weight. Final doses received were 7.5 mg/kg. Dosing volume for Compound I-263a was 0.2 mL. […]
as §1

From patent US12419890B2, “Administration of sumo-activating enzyme inhibitor and checkpoint inhibitors” (Takeda Pharmaceutical Company Limited, priority 2019, dated 2025) come the findings set out here.

For the compound `Cc1sc(C(=O)c2cncnc2N[C@@H]2C[C@H](COS(N)(=O)=O)[C@@H](O)C2)cc1[C@@H]1NCCc2ccc(Cl)cc21` [Compound I-263a, [(1R,2S,4R)-4-{[5-({4-[(1R)-7-chloro-1,2,3,4-tetrahydroisoquinolin-1-yl]-5-methyl-2-thienyl}carbonyl)pyrimidin-4-yl]amino}-2-hydroxycyclopentyl]methyl sulfamate], the “tumor growth inhibition relative to vehicle-treated tumors” value in experiment [1] was “did not show any tumor growth inhibition”. Besides, the “tumors with tumor growth delay” value in experiment [2] is 2.
